Reference: patent publication US9937152B2, “Derivative of styrene-maleic acid copolymer” (priority 2013, dated 2018)

How the values were obtained:
in vivo = settings: mouse
colon cancer (C26) = format: in vivo, Balb mice
Protocol: SMA-THP and pirarubicin (THP) were administered intravenously to mice at the respective dose shown in Table 2 at Day 10 from the inoculation of cancer in mice, and the antitumor effect was evaluated at Day 50. Subsequently, 5×10^5 colon cancer (C26) cells were inoculated in the back in Balb mice and the model animals with tumor size of 5 to 6 mm at about Day 7 to 9 were treated.

[1] = dose 3 mg/kg (MTD amount) i.v. at Day 10, evaluated at Day 50

## COc1cccc2c1C(=O)c1c(O)c3c(c(O)c1C2=O)C[C@@](O)(C(=O)CO)C[C@@H]3O[C@H]1C[C@H](N)[C@H](O[C@@H]2CCCCO2)[C@H](C)O1 [THP, pirarubicin]
In vivo; Balb, iv
  MTD: 3 mg/kg
In vivo
  LD50: 14.4 mg/kg
Colon cancer (C26); [1]
  Number of Metastatic Cancerous Nodes/Mouse: (1~5) (+), mice/group: 2/5
  Number of Metastatic Cancerous Nodes/Mouse: (>6) (++), mice/group: 3/5
  Number of Metastatic Cancerous Nodes/Mouse: No Metastasis (−), mice/group: 0/5
Colon cancer (C26); maximum tolerated dose of 3 mg/kg
  effect on the metastatic cancers: almost ineffective
